What is called pIC50 is the IC50 on a negative log10 scale, so that one unit is a factor of ten.

Each structure is given as a SMILES string. pIC50: −log10 of the molar value. Bounds are passed on as bounds.

For the experiment, the system named is Aβ 40 in conditioned media of cells stably expressing Amyloid Precursor Protein (APP). Briefly: BACE Cell-Based Assay (Aβ40 in conditioned medium, sandwich ELISA). Conditions: 24 hours of incubation with the test compounds, Aβ 40 by sandwich ELISA, read-out: IC50 values in the cell-based assay (inhibition of Aβ 40). A digest of the protocol:
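IC50 derived from Aβ40 reduction in supernatants, quantified by europium time-resolved fluorescence ELISA with pAb40/biotin-6E10 antibodies incubated at 4°C. Cells stably expressing APP received compound for 24 h, ten concentrations from 100 μM or 10 μM top, final DMSO 0.1%.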
A general note: An ELISA detects its analyte on a solid surface through an enzyme-linked reagent.
For `CC1(C)Oc2ncccc2[C@H]1NC[C@@H](O)[C@H](Cc1ccccc1)NC(=O)c1cc(-c2ccccn2)c(=O)n(C2CCCC2)c1` [Example 512, 1′-cyclopentyl-N-((1S,2R)-3-(((3R)-2,2-dimethyl-2,3-dihydrofuro[2,3-b]pyridin-3-yl)amino)-2-hydroxy-1-(phenylmethyl)propyl)-2′-oxo-1′,2′-dihydro-2,3′-bipyridine-5′-carboxamide], the pIC50 was no less than 5.30.

As for `CC1(C)Oc2ncccc2[C@@H]1NC[C@@H](O)[C@H](Cc1ccccc1)NC(=O)c1cc(C2=CC=CCN2)c(=O)n(C2CCCC2)c1` [Example 513, 1′-cyclopentyl-N-((1S,2R)-3-(((3S)-2,2-dimethyl-2,3-dihydrofuro[2,3-b]pyridin-3-yl)amino)-2-hydroxy-1-(phenylmethyl)propyl)-2′-oxo-1,2′-dihydro-2,3′-bipyridine-5′-carboxamide], the pIC50 is no less than 5.30.

On to `CCc1cc2c(s1)CC(C)(C)C[C@@H]2NC[C@@H](O)[C@H](Cc1ccccc1)NC(=O)[C@@H]1CN(C(=O)c2cccc(C)c2)CCO1` [Example 514, (2S)-N-((1S,2R)-3-(((4S)-2-ethyl-6,6-dimethyl-4,5,6,7-tetrahydro-1-benzothien-4-yl)amino)-2-hydroxy-1-(phenylmethyl)propyl)-4-((3-methylphenyl)carbonyl)-2-morpholinecarboxamide], for which the pIC50 was no less than 5.30.

For `CCc1cc2c(s1)CC(C)(C)C[C@@H]2NC[C@@H](O)[C@H](Cc1ccccc1)NC(=O)[C@H]1CN(C(=O)c2cccc(C)c2)CCO1` [Example 515, (2R)-N-((1S,2R)-3-(((4S)-2-ethyl-6,6-dimethyl-4,5,6,7-tetrahydro-1-benzothien-4-yl)amino)-2-hydroxy-1-(phenylmethyl)propyl)-4-((3-methylphenyl)carbonyl)-2-morpholinecarboxamide], the pIC50 is no less than 5.30.

With `CC1(C)Cc2ccc(O[C@H]3CCOC3)cc2[C@@H](NC[C@@H](O)[C@H](Cc2ccccc2)NC(=O)[C@H]2CCC(=O)O2)C1` [Example 516, (2R)-N-((1S,2R)-3-(((1S)-3,3-dimethyl-7-((3S)-tetrahydro-3-furanyloxy)-1,2,3,4-tetrahydro-1-naphthalenyl)amino)-2-hydroxy-1-(phenyl-methyl)propyl)-5-oxotetrahydro-2-furancarboxamide], the pIC50 was no less than 5.30.

On to `CC1(C)Cc2ccc(O[C@H]3CCOC3)cc2[C@@H](NC[C@@H](O)[C@H](Cc2ccccc2)NC(=O)[C@@H]2CCC(=O)O2)C1` [Example 517, (2S)-N-((1S,2R)-3-(((1S)-3,3-dimethyl-7-((3S)-tetrahydro-3-furanyloxy)-1,2,3,4-tetrahydro-1-naphthalenyl)amino)-2-hydroxy-1-(phenyl-methyl)propyl)-5-oxotetrahydro-2-furancarboxamide], for which the pIC50 was no less than 5.30.

As to `CC1(C)Cc2ccc(O[C@H]3CCOC3)cc2[C@@H](NC[C@@H](O)[C@H](Cc2ccccc2)NC(=O)c2ccc(=O)n(C3CCCC3)c2)C1` [Example 518, 1-cyclopentyl-N-((1S,2R)-3-(((1S)-3,3-dimethyl-7-((3S)-tetrahydro-3-furanyloxy)-1,2,3,4-tetrahydro-1-naphthalenyl)amino)-2-hydroxy-1-(phenylmethyl)propyl)-6-oxo-1,6-dihydro-3-pyridinecarboxamide], the negative-log IC50 (pIC50) was no less than 5.30.

Consider `CC1(C)Cc2ccc(O[C@H]3CCOC3)cc2[C@@H](NC[C@@H](O)[C@H](Cc2ccccc2)NC(=O)c2cc(-c3ccccn3)c(=O)n(C3CCCC3)c2)C1` [Example 519, 1′-cyclopentyl-N-((1S,2R)-3-(((1S)-3,3-dimethyl-7-((3S)-tetrahydro-3-furanyloxy)-1,2,3,4-tetrahydro-1-naphthalenyl)amino)-2-hydroxy-1-(phenylmethyl)propyl)-2′-oxo-1′,2′-dihydro-2,3′-bipyridine-5′-carboxamide], for which the pIC50 was no less than 5.30.

For `CCc1ccc2c(c1)[C@@H](NC[C@@H](O)[C@H](Cc1ccccc1)NC(=O)[C@@H]1CN(C(=O)N3CCO[C@@H](C)C3)CCO1)CC1(CCC1)O2` [Example 521, (2S)-N-((1S,2R)-3-(((4S)-6-ethyl-3,4-dihydrospiro[chromene-2,1′-cyclobutan]-4-yl)amino)-2-hydroxy-1-(phenylmethyl)propyl)-4-(((2S)-2-methyl-4-morpholinyl)carbonyl)-2-morpholinecarboxamide], the pIC50 was no less than 5.30.

Consider `CC(C)(C)Cc1cnc2c(c1)[C@@H](NC[C@@H](O)[C@H](Cc1ccccc1)NC(=O)c1cc(C3CCCCO3)c(=O)n(C3CCCC3)c1)CC1(CCC1)O2` (stereo partly drawn) [Example 522, 1-cyclopentyl-N-((1S,2R)-3-(((4′S)-6′-(2,2-dimethyl-propyl)-3′,4′-dihydrospiro[cyclobutane-1,2′-pyrano[2,3-b]pyridin]-4′-yl)amino)-2-hydroxy-1-(phenyl-methyl)propyl)-6-oxo-5-(tetrahydro-2H-pyran-2-yl)-1,6-dihydro-3-pyridinecarboxamide], for which the pIC50 is no less than 5.30.

With `CCc1cc2c(s1)CC(C)(C)C[C@@H]2NC[C@@H](O)[C@H](Cc1ccccc1)NC(=O)[C@H]1CC(=O)N(C2CCC2)C1` [Example 523, (3S)-1-cyclobutyl-N-((1S,2R)-3-(((4S)-2-ethyl-6,6-dimethyl-4,5,6,7-tetrahydro-1-benzothien-4-yl)amino)-2-hydroxy-1-(phenylmethyl)propyl)-5-oxo-3-pyrrolidinecarboxamide], the pIC50 was no less than 5.30.

With `O=C(N[C@@H](Cc1ccccc1)[C@H](O)CN[C@H]1CC2(CCC2)Oc2ccc(N3CCOCC3)cc21)[C@H]1CC(=O)N(C2CCC2)C1` [Example 524, (3S)-1-cyclobutyl-N-((1S,2R)-2-hydroxy-3-(((4S)-6-(4-morpholinyl)-3,4-dihydrospiro[chromene-2,1′-cyclobutan]-4-yl)amino)-1-(phenylmethyl)propyl)-5-oxo-3-pyrrolidinecarboxamide], the pIC50 was no less than 5.30.

Turning to `CCc1ccc2c(c1)[C@@H](NC[C@@H](O)[C@H](Cc1cscn1)NC(=O)c1cc(-c3ccccn3)c(=O)n(C3CCCC3)c1)CC1(CCC1)O2` [Example 525, 1′-cyclopentyl-N-((1S,2R)-3-(((4S)-6-ethyl-3,4-dihydrospiro[chromene-2,1′-cyclobutan]-4-yl)amino)-2-hydroxy-1-(1,3-thiazol-4-ylmethyl)propyl)-2′-oxo-1′,2′-dihydro-2,3′-bipyridine-5′-carboxamide], the negative-log IC50 (pIC50) is no less than 5.30.

As for `O=C(N[C@@H](Cc1ccccc1)[C@H](O)CN[C@H]1CC2(CCC2)Oc2ccc(N3CCOCC3)cc21)[C@@H]1CN(C(=O)C2CCOCC2)CCO1` [Example 526, (2S)-N-((1S,2R)-2-hydroxy-3-(((4S)-6-(4-morpholinyl)-3,4-dihydrospiro[chromene-2,1′-cyclobutan]-4-yl)amino)-1-(phenylmethyl)propyl)-4-(tetrahydro-2H-pyran-4-ylcarbonyl)-2-morpholinecarboxamide], the pIC50 was no less than 5.30.

Turning to `CCc1ccc2c(c1)[C@@H](NC[C@@H](O)[C@H](Cc1ccccc1)NC(=O)[C@@H]1C[C@@H](c3ccccc3)CN(C(=O)c3cccc(C)c3)C1)CC1(CCC1)O2` [Example 527, (3R,5S)-N-((1S,2R)-3-(((4S)-6-ethyl-3,4-dihydrospiro[chromene-2,1′-cyclobutan]-4-yl)amino)-2-hydroxy-1-(phenylmethyl)propyl)-1-((3-methylphenyl)carbonyl)-5-phenyl-3-piperidinecarboxamide], the pIC50 was no less than 5.30.

`O=C1CC[C@@H](C(=O)N[C@@H](Cc2ccccc2)[C@H](O)CN[C@H]2CC3(CCC3)Oc3ccc(N4CCOCC4)cc32)O1` [Example 528, (2S)-N-((1S,2R)-2-hydroxy-3-(((4S)-6-(4-morpholinyl)-3,4-dihydrospiro[chromene-2,1′-cyclobutan]-4-yl)amino)-1-(phenylmethyl)propyl)-5-oxotetrahydro-2-furancarboxamide]: the pIC50 was no less than 5.30.

On to `O=C1CC[C@H](C(=O)N[C@@H](Cc2ccccc2)[C@H](O)CN[C@H]2CC3(CCC3)Oc3ccc(N4CCOCC4)cc32)O1` [Example 529, (2R)-N-((1S,2R)-2-hydroxy-3-(((4S)-6-(4-morpholinyl)-3,4-dihydrospiro[chromene-2,1′-cyclobutan]-4-yl)amino)-1-(phenylmethyl)propyl)-5-oxotetrahydro-2-furancarboxamide], for which the pIC50 is no less than 5.30.

For the origin of these results see patent publication US8163766B2, “Beta-secretase modulators and methods of use” (Amgen Inc., priority 2005, dated 2012).
